The values that follow come from US10206398B2, “Five-membered C-N-attached aryl sulphide and aryl sulphoxide derivatives as pesticides” (BAYER CROPSCIENCE AKTIENGESELLSCHAFT, priority 2014, dated 2019).

One data set deals with Tetranychus urticae. Put plainly: Tetranychus urticae - spray test, OP-resistant (bean leaf discs, 6 days). The class given is in vivo. The following applies: after 6 days. The procedure: 5. Tetranychus urticae—Spray Test, OP-Resistant
Solvent: 78.0 parts by weight of acetone
• 1.5 parts by weight of dimethylformamide Emulsifier: alkylaryl polyglycol ether
To produce a suitable preparation of active compound, 1 part by weight of active compound is dissolved using the stated parts by weight of solvent and made up with water containing an emulsifier concentration of 1000 ppm until the desired concentration is attained. To produce further test concentrations, the preparation is diluted with emulsifier-containing water.
Discs of bean leaves (Phaseolus vulgaris) infested with all stages of the greenhouse red spider mite (Tetranychus urticae) are sprayed with an active compound preparation of the desired concentration.
After 6 days, the efficacy in % is determined. 100% means that all the spider mites have been killed; 0% means that no spider mites have been killed.

Data set [1] in a line: log P determination by HPLC on reversed-phase columns (C 18), analogous to OECD Guideline 117. The class given is physicochemical. The note with it: for logP[a]: method [a]; for logP[b]: method [b]; for chromatographic logP: reversed-phase HPLC column (C 18). The procedure:
The log P values were determined analogously to OECD Guideline 117 (EC Directive 92/69/EEC) by HPLC (high-performance liquid chromatography) using reversed-phase columns (C 18), by the following methods: [a] The LC-MS determination in the acidic range was effected at pH 2.7 with 0.1% aqueous formic acid and acetonitrile (contains 0.1% formic acid) as eluents; linear gradient from 10% acetonitrile to 95% acetonitrile. log P[a] is also referred to as log P(HCOOH). [b] LC-MS determination in the neutral range was effected at pH 7.8 with 0.001 molar aqueous ammonium hydrogencarbonate solution and acetonitrile as eluents; linear gradient from 10% acetonitrile to 95% acetonitrile. log P[b] is also referred to as log P(neutral). Calibration is effected with solutions of a homologous series of unbranched alkan-2-ones (having 3 to 16 carbon atoms) with known log P values (log P values determined on the basis of the retention times by linear interpolation between two successive alkanones).

Where [2] appears, read: pH 2.7, HPLC, acidic range, pH 2.7, 0.1% aqueous formic acid and acetonitrile, read-out: log P(HCOOH).
Where [3] appears, read: pH 7.8, HPLC, neutral range, pH 7.8, 0.001 molar aqueous ammonium hydrogencarbonate and acetonitrile, read-out: log P(neutral).
[4] abbreviates: pH 2.7, Table 3, HPLC, acidic range, pH 2.7, read-out: logP[a].
The mark [5] stands for this setting: pH 7.8, Table 3, HPLC, neutral range, pH 7.8, read-out: logP[b].

Where two headings read alike, the source gives them in different places.

Take `Cc1cc(F)c(N2C(=O)C(C)N(C(=O)NCc3ccccc3)C2=O)cc1[S+]([O-])CC(F)(F)F` (mixture of isomers) [compound 90]: in the data set with Tetranychus urticae (500 g/ha), the “efficacy (spider mites killed)” value is reported as 100%. In data set [1], the “logP[a]” value came to 3.12 and the “logP[b]” value is reported as 3.05.

`Cc1cc(Cl)c(N2C(=O)CN(C(=O)NCC(C)C)C2=O)cc1[S+]([O-])CC(F)(F)F` (racemic) [compound 65]: in the data set with Tetranychus urticae (100 g/ha), the “efficacy (spider mites killed)” value came out at 90%. Also, in data set [1], the “logP[a]” value stood at 2.95 and the “logP[b]” value was determined as 2.88.

Take `Cc1cc(F)c(N2C(=O)CN(C(=O)NCC3CCCO3)C2=O)cc1SCC(F)(F)F` (racemic) [compound 67]: the “efficacy (spider mites killed)” value in the data set on Tetranychus urticae (500 g/ha) was found to be 100%. In data set [1], the “logP[a]” value was determined as 2.99 and the “logP[b]” value worked out at 2.98.

Consider `Cc1cc(C)c([S+]([O-])CC(F)(F)F)cc1N1C(=O)CN(C(=O)Nc2cccc(Cl)c2)C1=O` (racemic) [compound 69], for which, in the data set with Tetranychus urticae (100 g/ha), the “efficacy (spider mites killed)” value is listed as 90%. Further, in data set [1], the “logP[a]” value is on record as 3.37 and the “logP[b]” value was determined as 3.33.

As for `Cc1cc(Cl)c(N2C(=O)CN(C(=O)NCc3ccccc3)C2=O)cc1[S+]([O-])CC(F)(F)F` (racemic) [compound 70], the “efficacy (spider mites killed)” value in the data set with Tetranychus urticae (500 g/ha) is 100%. In data set [1], the “logP[a]” value was determined as 2.95 and the “logP[b]” value is 2.91.

In the case of `Cc1cc(F)c(N2C(=O)C(C)N(C(=O)NCC(C)C)C2=O)cc1SCC(F)(F)F` (racemic) [compound 80], the “efficacy (spider mites killed)” value with Tetranychus urticae (500 g/ha) worked out at 100%. In addition, in data set [1], the “logP[a]” value is given as 3.99 and the “logP[b]” value was 3.98.

On to `Cc1cc(F)c(N2C(=O)C(C)N(C(=O)NCc3ccccc3)C2=O)cc1SCC(F)(F)F` (racemic) [compound 81], for which the “efficacy (spider mites killed)” value in the data set with Tetranychus urticae (500 g/ha) is recorded as 100%. Moreover, in data set [1], the “logP[a]” value is 3.94 and the “logP[b]” value came to 3.91.

As to `COCCNC(=O)N1CC(=O)N(c2cc([S+]([O-])CC(F)(F)F)c(C)cc2F)C1=O` (racemic) [compound 82], the “efficacy (spider mites killed)” value in the data set with Tetranychus urticae (500 g/ha) is 100%. In addition, in data set [1], the “logP[a]” value stood at 1.97 and the “logP[b]” value is recorded as 1.94.

For the compound `CCNC(=O)N1C(=O)N(c2cc([S+]([O-])CC(F)(F)F)c(C)cc2F)C(=O)C1(C)C` (racemic) [compound 83], the “efficacy (spider mites killed)” value in the data set with Tetranychus urticae (500 g/ha) came to 90%. Also, in data set [1], the “logP[a]” value was 2.73 and the “logP[b]” value is 2.70.

With `Cc1cc(F)c(N2C(=O)N(C(=O)NCC(F)(F)F)C(C)(C)C2=O)cc1[S+]([O-])CC(F)(F)F` (racemic) [compound 85], the “efficacy (spider mites killed)” value in the data set on Tetranychus urticae (500 g/ha) is reported as 100%. In data set [1], the “logP[a]” value turned out to be 3.07 and the “logP[b]” value turned out to be 3.05.

`Cc1cc(F)c(N2C(=O)N(C(=O)NCC(C)C)C(C)(C)C2=O)cc1[S+]([O-])CC(F)(F)F` (racemic) [compound 86]: in the data set with Tetranychus urticae (500 g/ha), the “efficacy (spider mites killed)” value was determined as 100%. In addition, in data set [1], the “logP[a]” value is 3.41 and the “logP[b]” value was 3.39.

For `Cc1cc(F)c(N2C(=O)N(C(=O)NCc3ccccc3)C(C)(C)C2=O)cc1[S+]([O-])CC(F)(F)F` (racemic) [compound 87], in the data set with Tetranychus urticae (500 g/ha), the “efficacy (spider mites killed)” value came to 100%. Also, in data set [1], the “logP[a]” value is reported as 3.48 and the “logP[b]” value is given as 3.38.

In the case of `Cc1cc(C)c([S+]([O-])CC(F)(F)F)cc1N1C(=O)CN(C(=O)Nc2cccc(CC(F)(F)F)c2)C1=O` (racemic) [compound 97], the “efficacy (spider mites killed)” value in the data set with Tetranychus urticae (500 g/ha) was determined as 90%. Further, in data set [1], the “logP[a]” value turned out to be 3.57 and the “logP[b]” value came to 3.47.

Consider `Cc1cc(C)c([S+]([O-])CC(F)(F)F)cc1N1C(=O)CN(C(=O)NCc2ccccc2)C1=O` (racemic) [compound 98], for which the “efficacy (spider mites killed)” value in the data set on Tetranychus urticae (500 g/ha) is on record as 90%. Also, in data set [1], the “logP[a]” value was 2.85 and the “logP[b]” value turned out to be 2.77.

For the compound `Cc1cc(Cl)c(N2C(=O)CN(C(=O)Nc3ccc(F)cc3)C2=O)cc1[S+]([O-])CC(F)(F)F` (racemic) [compound 100], the “efficacy (spider mites killed)” value in the data set on Tetranychus urticae (500 g/ha) was found to be 100%. Besides, in data set [1], the “logP[a]” value was determined as 3.17 and the “logP[b]” value was 3.09.

`CCNC(=O)N1CC(=O)N(c2cc([S+]([O-])CC(F)(F)F)c(Cl)cc2Cl)C1=O` (racemic) [compound 111]: the “efficacy (spider mites killed)” value in the data set on Tetranychus urticae (500 g/ha) is on record as 100%. Besides, in data set [1], the “logP[a]” value was found to be 2.56 and the “logP[b]” value is on record as 2.59.

Regarding `Cc1cc(Cl)c(N2C(=O)CN(C(=O)Nc3ccccn3)C2=O)cc1[S+]([O-])CC(F)(F)F` (racemic) [compound 119], in data set [1], the “logP[a]” value came to 2.65 and the “logP[b]” value is 2.65.

For the compound `Cc1cc(F)c(N2C(=O)CN(C(=O)NCC(F)(F)F)C2=O)cc1[S+]([O-])CC(F)(F)F` (single isomer, unassigned) [Ex. No. 135], in data set [1], the “logP[a]” value is 2.4 and the “logP[b]” value was found to be 2.44.

On to `Cc1cc(F)c(N2C(=O)CN(C(=O)NC3CC3)C2=S)cc1SCC(F)(F)F` [Ex. No. 2, N-Cyclopropyl-3-[2-fluoro-4-methyl-5-(2,2,2-trifluoroethylsulphanyl)phenyl]-4-oxo-2-thioxoimidazolidine-1-carboxamide], for which the chromatographic logP in data set [1] (setting [2]) stood at 3.66; in data set [1] (pH 2.7, method [a], read-out: logP[a]) it was 3.66; in data set [1] (setting [3]) it was 3.56; in data set [1] (pH 7.8, method [b], read-out: logP[b]), 3.56.

For `CCNC(=O)N1CC(=O)N(c2cc(SCC(F)(F)F)c(C)cc2F)C1=S` [Ex. No. 8], in data set [1], the “logP[a]” value is 3.91 and the “logP[b]” value is 3.86.

Take `Cc1cc(F)c(N2C(=O)NC(C)C2=O)cc1SCC(F)(F)F` (stereo not drawn) [IIa-3, 3-[2-Fluoro-4-methyl-5-(2,2,2-trifluoroethylsulphanyl)phenyl]-5-methylimidazolidine-2,4-dione]: the chromatographic logP is 2.34 in data set [1] (setting [2]), 2.34 in data set [1] (setting [4]), 2.31 in data set [1] (setting [3]) and 2.31 in data set [1] (setting [5]).

As to `Cc1cc(F)c(N2C(=O)NC(C)(C)C2=O)cc1SCC(F)(F)F` [IIa-5, 3-[2-Fluoro-4-methyl-5-(2,2,2-trifluoroethylsulphanyl)phenyl]-5,5-dimethylimidazolidine-2,4-dione], the chromatographic logP in data set [1] (setting [2]) came to 2.61; in data set [1] (setting [4]), 2.61; in data set [1] (setting [3]) it was 2.53; in data set [1] (setting [5]) it was 2.53.

On to `Cc1cc(F)c(N2C(=O)CN(C(=O)NC(C)C)C2=S)cc1SCC(F)(F)F` [compound 5], for which, in data set [1], the “logP[a]” value is listed as 3.98 and the “logP[b]” value was 3.87.

For `Cc1cc(F)c(N2C(=O)CN(C(=O)NCC(C)C)C2=S)cc1SCC(F)(F)F` [compound 11], in data set [1], the “logP[a]” value is 4.27 and the “logP[b]” value is listed as 4.18.

Turning to `Cc1cc(F)c(N2C(=O)CN(C(=O)Nc3cccnc3)C2=O)cc1SCC(F)(F)F` [compound 17], in data set [1], the “logP[a]” value is 2.37 and the “logP[b]” value is on record as 2.75.

For the compound `Cc1cc(C)c([S+]([O-])CC(F)(F)F)cc1N1C(=O)CN(C(=O)NCC(C)C)C1=O` (stereo not drawn) [compound 35], in data set [1], the “logP[a]” value was found to be 2.77 and the “logP[b]” value is given as 2.76.

`Cc1cc(C)c(N2C(=O)CN(C(=O)Nc3cccc(Cl)c3)C2=O)cc1SCC(F)(F)F` [compound 56]: in data set [1], the “logP[a]” value is 4.32 and the “logP[b]” value stood at 4.19.

`CCNC(=O)N1C(=O)N(c2cc(SCC(F)(F)F)c(C)cc2F)C(=O)C1(C)C` [compound 73]: in data set [1], the “logP[a]” value was 3.72 and the “logP[b]” value was found to be 3.70.

Turning to `Cc1cc(F)c(N2C(=O)N(C(=O)NCC(F)(F)F)C(C)(C)C2=O)cc1SCC(F)(F)F` [compound 75], in data set [1], the “logP[a]” value stood at 4.02 and the “logP[b]” value is given as 3.95.

On to `Cc1cc(C)c(N2C(=O)CN(C(=O)Nc3ccc(F)cc3)C2=O)cc1SCC(F)(F)F` [compound 93], for which, in data set [1], the “logP[a]” value turned out to be 3.95 and the “logP[b]” value was 3.86.

`Cc1cc(C)c(N2C(=O)CN(C(=O)Nc3ccccn3)C2=O)cc1SCC(F)(F)F` [compound 95]: in data set [1], the “logP[a]” value was found to be 3.47 and the “logP[b]” value was 3.42.

As for `Cc1cc(Cl)c(N2C(=O)CN(C(=O)Nc3ccccn3)C2=O)cc1SCC(F)(F)F` [compound 96], in data set [1], the “logP[a]” value was found to be 3.55 and the “logP[b]” value was 3.51.

With `O=C(NCc1ccccc1)N1CC(=O)N(c2cc(SCC(F)(F)F)c(Cl)cc2Cl)C1=O` [compound 107], in data set [1], the “logP[a]” value stood at 3.86 and the “logP[b]” value is reported as 3.90.

Turning to `Cc1cc(F)c(N2C(=O)CN(C(=O)N(C)CC(C)C)C2=O)cc1SCC(F)(F)F` [compound 124], in data set [1], the “logP[a]” value worked out at 3.53 and the “logP[b]” value is on record as 3.59.
